Experiment [1] deals with T1, Genome polyprotein (dengue virus type 2, UniProt P29990). The class given is functional, Thailand/16681/1984.
For experiment [2], the target named is T1, Genome polyprotein. The class given is functional, Thailand/16681/1984. This is another data set of the same source.

“And” between values parts separate entries of the source, which are not always exact repeats. Identical values can stand only once.

The term IC50 denotes the concentration needed to halve the response being measured. The low end stands for greater potency, the high end for weaker potency.

T1 sequence (P29990 1346-1475 limits assumed): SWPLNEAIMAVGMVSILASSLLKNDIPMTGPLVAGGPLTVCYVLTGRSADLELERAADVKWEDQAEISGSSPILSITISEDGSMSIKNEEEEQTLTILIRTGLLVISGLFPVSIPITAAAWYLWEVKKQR
T1 sequence (P29990 1476-2093 limits assumed): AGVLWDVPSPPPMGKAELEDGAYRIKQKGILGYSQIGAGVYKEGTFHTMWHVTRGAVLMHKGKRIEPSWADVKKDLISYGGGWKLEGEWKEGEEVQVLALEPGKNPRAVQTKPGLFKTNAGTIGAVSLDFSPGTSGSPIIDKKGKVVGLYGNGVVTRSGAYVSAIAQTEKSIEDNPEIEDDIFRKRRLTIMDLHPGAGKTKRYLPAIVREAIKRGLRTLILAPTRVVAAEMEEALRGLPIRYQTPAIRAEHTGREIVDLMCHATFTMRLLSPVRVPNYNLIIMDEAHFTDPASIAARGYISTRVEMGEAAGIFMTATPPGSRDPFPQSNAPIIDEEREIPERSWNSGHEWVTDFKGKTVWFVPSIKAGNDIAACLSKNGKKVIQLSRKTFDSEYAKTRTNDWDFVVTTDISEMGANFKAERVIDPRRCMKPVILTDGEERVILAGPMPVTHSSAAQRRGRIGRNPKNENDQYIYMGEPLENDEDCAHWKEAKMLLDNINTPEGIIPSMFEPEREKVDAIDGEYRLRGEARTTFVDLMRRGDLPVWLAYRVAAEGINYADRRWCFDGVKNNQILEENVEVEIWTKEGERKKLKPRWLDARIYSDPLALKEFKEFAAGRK

As to `N#C[C@]1(Nc2ccc3c(c2)CNC3)C(=O)Nc2ccccc21`, the IC50 is above 99.5 µM against Genome polyprotein [1] and above 100 µM on Genome polyprotein [2].
In the same order, the values of `O=C(Nc1ccc2c(c1)CNC2)c1ccc2c(c1)NCCO2` are above 99.5 µM and above 100 µM.
In the case of `CCc1cc(C(=O)Nc2ccc3c(c2)CNC3)sc1-c1ccc(Cl)cc1`, the IC50 is above 99.5 µM against Genome polyprotein [1] and above 100 µM on Genome polyprotein [2].
The like results for `C[C@@H](N)c1ccc(NC(=O)c2cc(Cl)cc3[nH]ncc23)cc1` were, in that order, above 99.5 µM and above 100 µM.
The like results for `Cc1c(C(=O)Nc2cc(CCCN)ccn2)cc(C2CCC2)n1C` were, in that order, above 99.5 µM and above 100 µM.
For `Cc1c(C(=O)Nc2cc(CCCN)ccn2)cc(C(C)C)n1C`, the IC50 is above 99.5 µM against Genome polyprotein [1] and above 100 µM on Genome polyprotein [2].
In the same order, the values of `CN(C(=O)c1cc(Cl)cc2[nH]ncc12)c1ccc2c(c1)CNC2` are above 99.5 µM and above 100 µM.
The like results for `O=C(Nc1ccc2c(c1)CNC2)c1ccccc1-n1cccc1` were, in that order, above 99.5 µM and above 100 µM.
As to `CC(C)Cc1nc2c(C(=O)Nc3ccc4c(c3)CNC4)cc(Br)cc2[nH]1`, the IC50 against Genome polyprotein [1] was 56.2 µM; against Genome polyprotein [2], above 100 µM.
In the same order, the values of `O=C(Nc1ccc2c(c1)CNC2)c1cc(Cl)cc(-n2cccc2)c1` are above 99.5 µM and above 100 µM.
As for `O=C(Nc1ccc2c(c1)CNC2)c1ccn[nH]1`, the IC50 against Genome polyprotein [1] was above 99.5 µM; on Genome polyprotein [2] it was above 100 µM.
In the same order, the values of `Cc1cc(NC(=O)c2cc(C3CC3)n(C)c2C)ncc1S(N)(=O)=O` are above 99.5 µM and above 100 µM.
The like results for `O=C(Nc1ccc2c(c1)CNC2)C1CCCCC1` were, in that order, above 99.5 µM and above 100 µM.
For `NCc1cc(NC(=O)c2cc(Cl)cc(NC(=O)OCc3ccccc3)c2)cc(C2=CC[C@H](C(=O)O)CC2)c1`, the IC50 against Genome polyprotein [1] was above 99.5 µM; at Genome polyprotein [2], above 100 µM.
Take `Cc1c(C(=O)Nc2cc(-c3ccccn3)c(Br)cn2)cc(C2CC2)n1C`: the IC50 on Genome polyprotein [1] is above 99.5 µM; against Genome polyprotein [2] it was above 100 µM.
For `CNC(=O)[C@H](Nc1ccc2c(c1)CNC2)c1cccc2[nH]ncc12`, the IC50 is 81.3 µM at Genome polyprotein [1] and above 100 µM against Genome polyprotein [2].
The like results for `NCc1nc2cc(Cl)ccc2n1Cc1ccc(-c2nn[nH]n2)cc1` were, in that order, above 99.5 µM and above 100 µM.
As for `FC(F)(F)Oc1cc(Cl)cc2c(Cc3ccc(-c4nnn[nH]4)cc3)c[nH]c12`, the IC50 against Genome polyprotein [1] is 12.6 µM; on Genome polyprotein [2], 7.84 µM.
The like results for `CCCN1C(=O)[C@](C#N)(Nc2ccc3c(c2)CNC3)c2ccccc21` were, in that order, above 99.5 µM and above 100 µM.
The like results for `CCCc1sc(C(=O)Nc2ccc3c(c2)CNC3)cc1CC` were, in that order, above 99.5 µM and above 100 µM.
As for `Cc1c(C(=O)Nc2cc(C(N)=O)c3ccccc3n2)cc(C2CC2)n1C`, the values for the IC50 at Genome polyprotein [1] and against Genome polyprotein [2] were above 99.5 µM and above 100 µM, respectively.
Turning to `O=C1Cc2c(cccc2C(=O)Nc2ccc3c(c2)CNC3)N1`, the IC50 against Genome polyprotein [1] is 11.8 µM and 17.4 µM and 20.7 µM; at Genome polyprotein [2], 45.6 µM and 19.1 µM.
With `CNCc1ccc(NC(=O)c2cc(Cl)cc3[nH]ncc23)cc1`, the IC50 at Genome polyprotein [1] is above 99.5 µM; at Genome polyprotein [2] it was above 100 µM.
In the same order, the values of `Cc1c(C(=O)Nc2nccc3c2CNCC3)cc(C2CC2)n1C` are above 99.5 µM and above 100 µM.
The like results for `Cc1c(C(=O)Nc2cc(CCCN)ccn2)cc(C2CCCCC2)n1C` were, in that order, above 99.5 µM and above 100 µM.
In the case of `O=C(Nc1ccc2c(c1)CNCCC2)c1cc(Cl)cc2[nH]ncc12`, the IC50 on Genome polyprotein [1] is 42.5 µM; against Genome polyprotein [2] it was 62.4 µM and 45.8 µM.
Turning to `O=C(Nc1ccc2c(c1)CNC2)c1cncc(-c2ccccc2)c1`, the IC50 against Genome polyprotein [1] is above 99.5 µM; against Genome polyprotein [2], above 100 µM.
In the same order, the values of `O=C(Nc1ccc2c(c1)CNC2)c1c[nH]c2ncc(F)cc12` are above 99.5 µM and above 100 µM.
In the case of `NCc1cc(NC(=O)c2cc(Cl)cc(NC(=O)OCc3ccccc3)c2)cc(-c2cccc(CC(=O)O)c2)c1`, the IC50 against Genome polyprotein [1] is above 99.5 µM; against Genome polyprotein [2] it was above 100 µM.
Regarding `O=C(O)Cc1cc2c(c(Cc3c[nH]c4ccc(Cl)cc34)c1)OCC2`, the values for the IC50 on Genome polyprotein [1] and on Genome polyprotein [2] were above 99.5 µM and above 100 µM, respectively.
The like results for `CCOCCCN1Cc2ccc(NC(=O)c3cc(Cl)cc4[nH]ncc34)cc2C1` were, in that order, above 99.5 µM and above 100 µM.
In the same order, the values of `O=C(O)c1cc2cc(-c3cc(Cl)c4[nH]c(=O)oc4c3)ccc2[nH]1` are 47.3 µM and 63.2 µM.
The like results for `O=C(Nc1ccc2c(c1)CNC2)c1cccc2[nH]ncc12` were, in that order, above 99.5 µM and above 100 µM.
`O=C(c1cc(Cl)cc2[nH]ncc12)N1C[C@H]2CNC[C@H]2C1`: the values for the IC50 against Genome polyprotein [1] and on Genome polyprotein [2] were above 99.5 µM and above 100 µM, respectively.
In the same order, the values of `CNC(=O)[C@]1(Nc2ccc3c(c2)CNC3)C(=O)Nc2ccccc21` are above 99.5 µM and above 100 µM.
